Assays:
[1] = Evaluation of conversion rate to active form in buffer solution (Experimental Example 1); format: physicochemical
Procedure: For Examples 1 to 16 and Comparative Examples 1 to 14, the attrition rate of the test compound and the conversion rate of the test compound to Alvocidib in a buffer solution were calculated by the following method.
Examples 1 to 16 and Comparative Examples 1 to 14 were each left in buffer solutions adjusted to pH 5.0, 5.5, 6.0, 6.5, 7.0 and 7.4, respectively, at a concentration of 25 umol/L at 37° C. After 0, 0.5, 1, 2 and 3 hours, the residual rates of the compounds of Examples […] and the production rate of Alvocidib were determined by HPLC.
The buffer solutions used at each pH are as follows. • pH 5.0: 50 mM citrate buffer solution (pH 5.0) • pH 5.5: 50 mM citrate buffer solution (pH 5.5) • pH 6.0: 50 mM phosphate buffer solution (pH 6.0) • pH 6.5: 50 mM phosphate buffer solution (pH 6.5) • pH 7.0: 50 mM phosphate buffer solution (pH 7.0) • pH 7.4: 50 mM phosphate buffer solution (pH 7.4)
(§1) The measurement conditions for HPLC are as follows.

[2] = Stability evaluation of solution formulation (Experimental Example 2); format: physicochemical; conditions: for Production rate of Alvocidib / Residual rate: solution formulation
Procedure: For Example 1, Example 2, Example 5, Example 6, Comparative Example 13 and Comparative Example 14, the attrition rate of the test compound and the conversion rate of the test compound to Alvocidib in a solution formulation were calculated by the following method.
Example 1, Example 2, Example 5, Example 6, Comparative Example 13 and Comparative Example 14 were each added to buffer solutions adjusted to pH 3.0, 4.0 and 5.0, respectively, at a concentration of 0.1 mg/mL, and left at 5° C. After 0, 1, 2 and 4 weeks, the residual rates of the compounds of Example 1, Example 2, […], Comparative Example 13 and Comparative Example 14 and the production rate of Alvocidib were determined by HPLC.
The buffer solutions used at each pH are as follows. • pH 3.0: 5 mM tartrate buffer solution/10% sucrose solution (pH 3.0) • pH 4.0: 5 mM tartrate buffer solution/10% sucrose solution (pH 4.0) • pH 5.0: 5 mM tartrate buffer solution/10% sucrose solution (pH 5.0)
as §1
• column: Acquity UPLC BEH C18, 1.7 um, 50×2.1 mm • column temperature: 40° C. • mobile phase: • A: water containing 0.1% trifluoroacetic acid • B: acetonitrile • A/B (min): • 80/20(0)→75/25(3)→0/100(3.5)→0/100(4)→80/20(4.01)→80/20(5) • flow rate: 0.8 mL/min • detection: ultraviolet visible detector, measurement wavelength 254 nm • injection: 3 μL

CN1CC[C@H](c2c(OC(=O)N(C)CCN)cc(O)c3c(=O)cc(-c4ccccc4Cl)oc23)[C@H](O)C1 [Comparative Example 13, reference compound]
Production rate of Alvocidib ([1]; pH5.0, 0 hr): 0.0%
Residual rate ([1]; pH5.0, 0 hr): 99.8%
Stability in buffer solution at pH 5 ([1]; pH 5, 37° C., up to 2 or 3 hours): unstable
Production rate of Alvocidib ([1]; pH5.0, 0.5 hr): 2.2%
Residual rate ([1]; pH5.0, 0.5 hr): 96.0%
Production rate of Alvocidib ([1]; pH5.0, 1 hr): 4.1%
Residual rate ([1]; pH5.0, 1 hr): 94.0%
Production rate of Alvocidib ([1]; pH5.0, 2 hr): 8.3%
Residual rate ([1]; pH5.0, 2 hr): 90.8%
Production rate of Alvocidib ([1]; pH5.0, 3 hr): 12.3%
Residual rate ([1]; pH5.0, 3 hr): 86.5%
Production rate of Alvocidib ([1]; pH5.5, 0 hr): 0.0%
Residual rate ([1]; pH5.5, 0 hr): 98.3%
Production rate of Alvocidib ([1]; pH5.5, 0.5 hr): 6.5%
Residual rate ([1]; pH5.5, 0.5 hr): 91.3%
Production rate of Alvocidib ([1]; pH5.5, 1 hr): 11.9%
Residual rate ([1]; pH5.5, 1 hr): 85.5%
Production rate of Alvocidib ([1]; pH5.5, 2 hr): 22.6%
Residual rate ([1]; pH5.5, 2 hr): 73.9%
Production rate of Alvocidib ([1]; pH5.5, 3 hr): 32.2%
Residual rate ([1]; pH5.5, 3 hr): 64.7%
Production rate of Alvocidib ([1]; pH6.0, 0 hr): 0.0%
Residual rate ([1]; pH6.0, 0 hr): 98.7%
Production rate of Alvocidib ([1]; pH6.0, 0.5 hr): 23.8%
Residual rate ([1]; pH6.0, 0.5 hr): 72.9%
Production rate of Alvocidib ([1]; pH6.0, 1 hr): 40.3%
Residual rate ([1]; pH6.0, 1 hr): 56.3%
Production rate of Alvocidib ([1]; pH6.0, 2 hr): 63.0%
Residual rate ([1]; pH6.0, 2 hr): 30.4%
Production rate of Alvocidib ([1]; pH6.0, 3 hr): 75.5%
Residual rate ([1]; pH6.0, 3 hr): 16.8%
Production rate of Alvocidib ([1]; pH6.5, 0 hr): 0.2%
Residual rate ([1]; pH6.5, 0 hr): 99.5%
Production rate of Alvocidib ([1]; pH6.5, 0.5 hr): 51.7%
Residual rate ([1]; pH6.5, 0.5 hr): 42.2%
Production rate of Alvocidib ([1]; pH6.5, 1 hr): 73.5%
Residual rate ([1]; pH6.5, 1 hr): 20.0%
Production rate of Alvocidib ([1]; pH6.5, 2 hr): 87.1%
Residual rate ([1]; pH6.5, 2 hr): 3.8%
Production rate of Alvocidib ([1]; pH6.5, 3 hr): 90.0%
Residual rate ([1]; pH6.5, 3 hr): 0.9%
Production rate of Alvocidib ([1]; pH7.0, 0 hr): 0.5%
Residual rate ([1]; pH7.0, 0 hr): 97.8%
Production rate of Alvocidib ([1]; pH7.0, 0.5 hr): 82.2%
Residual rate ([1]; pH7.0, 0.5 hr): 9.3%
Production rate of Alvocidib ([1]; pH7.0, 1 hr): 89.7%
Residual rate ([1]; pH7.0, 1 hr): 1.3%
Production rate of Alvocidib ([1]; pH7.0, 2 hr): 91.0%
Residual rate ([1]; pH7.0, 2 hr): 0.0%
Production rate of Alvocidib ([1]; pH7.0, 3 hr): 91.0%
Residual rate ([1]; pH7.0, 3 hr): 0.0%
Production rate of Alvocidib ([1]; pH7.4, 0 hr): 1.3%
Residual rate ([1]; pH7.4, 0 hr): 97.2%
Production rate of Alvocidib ([1]; pH7.4, 0.5 hr): 90.5%
Residual rate ([1]; pH7.4, 0.5 hr): 0.8%
Production rate of Alvocidib ([1]; pH7.4, 1 hr): 91.2%
Residual rate ([1]; pH7.4, 1 hr): 0.0%
Production rate of Alvocidib ([1]; pH7.4, 2 hr): 91.4%
Residual rate ([1]; pH7.4, 2 hr): 0.0%
Production rate of Alvocidib ([1]; pH7.4, 3 hr): 92.1%
Residual rate ([1]; pH7.4, 3 hr): 0.0%
Stability / conversion to Alvocidib in solution formulation at pH 3 ([2]; pH 3, 5° C., up to 4 weeks): stable
Stability / conversion to Alvocidib in solution formulation at pH 4 ([2]; pH 4, 5° C., up to 4 weeks): gradually converted to Alvocidib
production rate of Alvocidib / converted to Alvocidib ([2]; solution formulation pH 5, 5° C., after 4 weeks): about 40%
Production rate of Alvocidib ([2]; pH3.0, 0 week): 0.1%
Residual rate ([2]; pH3.0, 0 week): 99.6%
Production rate of Alvocidib ([2]; pH3.0, 1 week): 0.2%
Residual rate ([2]; pH3.0, 1 week): 99.3%
Production rate of Alvocidib ([2]; pH3.0, 2 week): 0.3%
Residual rate ([2]; pH3.0, 2 week): 99.5%
Production rate of Alvocidib ([2]; pH3.0, 4 week): 0.6%
Residual rate ([2]; pH3.0, 4 week): 99.1%
Production rate of Alvocidib ([2]; pH4.0, 0 week): 0.2%
Residual rate ([2]; pH4.0, 0 week): 99.4%
Production rate of Alvocidib ([2]; pH4.0, 1 week): 1.2%
Residual rate ([2]; pH4.0, 1 week): 98.1%
Production rate of Alvocidib ([2]; pH4.0, 2 week): 2.2%
Residual rate ([2]; pH4.0, 2 week): 97.4%
Production rate of Alvocidib ([2]; pH4.0, 4 week): 4.8%
Residual rate ([2]; pH4.0, 4 week): 94.4%
Production rate of Alvocidib ([2]; pH5.0, 0 week): 1.4%
Residual rate ([2]; pH5.0, 0 week): 98.1%
Production rate of Alvocidib ([2]; pH5.0, 1 week): 13.7%
Residual rate ([2]; pH5.0, 1 week): 84.3%
Production rate of Alvocidib ([2]; pH5.0, 2 week): 25.3%
Residual rate ([2]; pH5.0, 2 week): 71.7%
Production rate of Alvocidib ([2]; pH5.0, 4 week): 39.4%
Residual rate ([2]; pH5.0, 4 week): 55.9%

— US12617779B2, “Self degradation-type CDK9 inhibitor prodrug and liposome encapsulating same” (Sumitomo Pharma Co., Ltd., priority 2021, dated 2026)
